One assay has as its target T1, KCNQ2/3 channels (Homo sapiens, UniProt O43525+O43526).
T1 construct: expressed in transfected cells
The experiment in a line: Fluorescence assay using a voltage sensitive dye (fluorimetry). The class given is cell-based. Conditions: CHO-K1 cells expressing KCNQ2/3 channels; for EC50: agonistic activity; for Emax: relative to retigabine = 100%, read-out: Fluorimetry % efficacy (retigabine = 100%). As for the experimental part:
Fluorescence Assay using a Voltage Sensitive Dye
Human CHO—K1 cells expressing KCNQ2/3 channels are cultivated adherently at 37° C., 5% CO2 and 95% humidity in cell culture bottles (e.g. 80 cm^2 TC flasks, Nunc) with DMEM-high glucose (Sigma Aldrich, D7777) including 10% FCS (PAN Biotech, e.g. 3302-P270521) or alternatively MEM Alpha Medium (1×, liquid, Invitrogen, #22571), 10% fetal calf serum (FCS) (Invitrogen, #10270-106, heat-inactivated) and the necessary selection antibiotics.
Before being sown out for the measurements, the cells are washed with a 1×DPBS buffer without Ca^2+/Mg^2+ (e.g. Invitrogen, #14190-094) and detached from the bottom of the culture vessel by means of Accutase (PAA Laboratories, #L11-007) (incubation with Accutase for 15 min at 37° C.). The cell count then present is determined using a CASY™ cell counter (TCC model, Schärfe System) in order subsequently to apply, depending on the density optimization for the individual cell line, 20,000-30,000 cells/well/100 μl of the described nutrient medium to 96-well measuring plates of the Corning™ CellBIND™ type (Flat Clear Bottom Black Polystyrene Microplates, #3340). Incubation is then carried out for one hour at room temperature, without gassing or adjusting the humidity, followed by incubation for 24 hours at 37° C., 5% CO2 and 95% humidity.
The voltage-sensitive fluorescent dye from the Membrane Potential Assay Kit (Red™ Bulk format part R8123 for FLIPR, MDS Analytical Technologies™) is prepared by dissolving the contents of a vessel Membrane Potential Assay Kit Red Component A in 200 ml of extracellular buffer (ES buffer, 120 mM NaCl, 1 mM KCl, 10 mM HEPES, 2 mM CaCl2, 2 mM MgCl2, 10 mM glucose; pH 7.4). After removal of the nutrient medium, the cells are washed with 200 μl of ES buffer, then covered with a layer of 100 μl of the dye solution prepared above and incubated for 45 min at room temperature with the exclusion of light.
The fluorescence measurements are carried out with a BMG Labtech FLUOstar™, BMG Labtech NOVOstar™ or BMG Labtech POLARstar™ instrument (525 nm excitation, 560 nm emission, Bottom Read mode). After incubation of the dye, 50 μl of the test substances in the desired concentrations, or 50 μl of ES buffer for control purposes, are introduced into separate cavities of the measuring plate and incubated for 30 min at room temperature while being shielded from light. The fluorescence intensity of the dye is then measured for 5 min and the fluorescence value F1 of each well is thus determined at a given, constant time. 15 μl of a […] KCl solution ([…]) are then added to each well. The change in fluorescence is subsequently measured until all the relevant measured values have been obtained (mainly 5-30 min). At a given time after KCl application, a fluorescence value F2 is determined, in this case at the time of the fluorescence peak.
For calculation, the fluorescence intensity F2 is compared with the fluorescence intensity F1, and the agonistic activity of the target compound on the potassium channel is determined therefrom. F2 and F1 are calculated as follows: […]
In order to determine whether a substance has agonistic activity,
A substance has an agonistic activity on the potassium channel when
[formula] it is possible to conclude that a target compound has agonistic activity if an increase in
Calculations of EC50 values are carried out with the aid of ‘Prism v4.0’ software (GraphPad Software™).

Assay [1] concerns formalin-induced pain behaviour. The experiment in a line: Formalin test, mouse (phase 2, chronic pain component). Type of assay: in vivo. Conditions: change in percent compared with vehicle control. The procedure: Formalin Test, Mouse The formalin test (Dubuisson, D. and Dennis, S. G., 1977, Pain, 4, 161-174) represents a model for both acute and chronic pain. By means of a single formalin injection into the dorsal side of a rear paw, a biphasic nociceptive reaction is induced in freely mobile test animals; the reaction is detected by observing three behaviour patterns which are clearly distinguishable from one another. The reaction is two-phase: phase 1=immediate reaction (duration up to 10 min; shaking of the paw, licking), phase 2=late reaction (after a rest phase; likewise shaking of the paw, licking; duration up to 60 min). The 1st phase reflects a direct stimulation of the peripheral nocisensors with high spinal nociceptive input (acute pain phase); the 2nd phase reflects a spinal and peripheral hypersensitization (chronic pain phase). In the studies described here, the chronic pain component (phase 2) has been evaluated. Formalin in a volume of 20 μl and a concentration of 1% is administered subcutaneously into the dorsal side of the right rear paw of each animal. The specific changes in behaviour, such as lifting, shaking or licking of the paw (score 3, Dubuisson & Dennis, 1977), are observed and recorded in the observation period of 21 to 24 minutes following the formalin injection. The behaviour of the animals after administration of the substance (n=10 per dose of substance) was compared with a control group which received vehicle (n=10). On the basis of the quantification of the pain behaviour, the action of the substance in the formalin test was determined as the change in percent compared with the control. The ED50 calculations (ED50=mean effective dose) were carried out by means of regression analysis according to the method of Litchfield and Wilcoxon (Litchfield, J. T., Wilcoxon, J. J., 1949, J. Pharmacol. Exp. Ther. 96, 99—113). The time of administration of the compound before the formalin injection was chosen as 5 min in the case of intravenous administration and 30 min in the case of oral administration.

For the molecule `O=C(CC1CCCCC1)Nc1cc2ccccc2nc1SCCS(=O)(=O)c1ccccc1` [Example 1, 2-cyclohexyl-N-(2-(2-(phenylsulfonyl)ethylthio)quinolin-3-yl)acetamide], at KCNQ2/3 channels, the midpoint of the response, the EC50, lay at 253 nM and the Emax turned out to be 80%.

In the case of `O=C(Cc1cccs1)Nc1cc2ccccc2nc1SCCS(=O)(=O)c1ccccc1` [Example 2, N-(2-(2-(phenylsulfonyl)ethylthio)quinolin-3-yl)-2-(thiophen-2-yl)acetamide], on KCNQ2/3 channels, the midpoint of the response, the EC50, lay at 67 nM and the Emax amounted to 80%.

For `O=C(CCC1CCCCC1)Nc1cc2ccccc2nc1SCCS(=O)(=O)c1ccccc1` [Example 3, 3-Cyclohexyl-N-(2-(2-(phenylsulfonyl)ethylthio)quinolin-3-yl)propanamide], at KCNQ2/3 channels, the EC50 (as a rule, the midpoint of the concentration-response curve) worked out at 174 nM and the Emax came out at 97%.

With `CCCCCSc1nc2ccccc2cc1NC(=O)Cc1cccs1` [Example 4, N-(2-(pentylthio)quinolin-3-yl)-2-(thiophen-2-yl)acetamide], on KCNQ2/3 channels, the EC50 was 107 nM and the Emax worked out at 60%.

As to `O=C(Cc1cccs1)Nc1cc2ccccc2nc1SCCSc1ccccc1` [Example 6, N-(2-(2-(phenylthio)ethylthio)quinolin-3-yl)-2-(thiophen-2-yl)acetamide], the Emax on KCNQ2/3 channels is 25%.

On to `CCSc1nc2ccccc2cc1NC(=O)Cc1cccs1` [Example 7, N-(2-(ethylthio)quinolin-3-yl)-2-(thiophen-2-yl)acetamide], for which the “Formalin Test mouse IV effect @ dose [mg/kg]” value in assay [1] (1 mg/kg) was determined as 24% @ 1. For the same molecule, at KCNQ2/3 channels, the response was half-maximal at 156 nM (EC50) and the Emax was determined as 93%.

For the molecule `CCSc1nc2ccccc2cc1NC(=O)CC(C)(C)C` [Example 9, N-(2-(ethylthio)quinolin-3-yl)-3,3-dimethylbutanamide], on KCNQ2/3 channels, the EC50 is 414 nM and the Emax was determined as 142%.

Take `CCSc1nc2cc(C(F)(F)F)ccc2cc1NC(=O)Cc1cccs1` [Example 10, N-[2-Ethylsulfanyl-7-(trifluoromethyl)quinolin-3-yl]-2-thiophen-2-yl-acetamide]: on KCNQ2/3 channels, the half-maximal effective concentration (EC50) came out at 1150 nM and the Emax amounted to 57%.

Turning to `CCSc1nc2cc(C(F)(F)F)ccc2cc1NC(=O)CC(C)(C)C` [Example 11, N-[2-ethylsulfanyl-7-(trifluoromethyl)-quinolin-3-yl]-3,3-dimethyl-butyramide], at KCNQ2/3 channels, the Emax worked out at 35%.

Consider `CCSc1nc2cc(C(F)(F)F)ccc2cc1NC(=O)CCC1CCCC1` [Example 12, 3-cyclopentyl-N-[2-ethylsulfanyl-7-(trifluoromethyl)-quinolin-3-yl]propionamide], for which, at KCNQ2/3 channels, the EC50 came to 5020 nM and the Emax was 62%.

With `CCSc1nc2ccccc2cc1NC(=O)CC1CCCCC1` [Example 13, 2-Cyclohexyl-N-(2-ethylsulfanyl-quinolin-3-yl)-acetamide], on KCNQ2/3 channels, the response was half-maximal at 150 nM (EC50) and the Emax was 101%.

Turning to `CCSc1nc2ccccc2cc1NC(=O)CC1CC2CCC1C2` (stereo not shown) [Example 14, 2-(5-bicyclo[2.2.1]heptanyl)-N-(2-ethylsulfanyl-quinolin-3-yl)-acetamide], at KCNQ2/3 channels, a half-maximal response (EC50) required 204 nM and the Emax came out at 179%.

With `CCSc1nc2ccccc2cc1NC(=O)CCC1CCCC1` [Example 15, 3-cyclopentyl-N-(2-ethylsulfanyl-quinolin-3-yl)-propionamide], the “Formalin Test mouse IV effect @ dose [mg/kg]” value in assay [1] (1 mg/kg) turned out to be 17% @ 1. For the same molecule, on KCNQ2/3 channels, the 50% effective concentration (EC50) stood at 82 nM and the Emax amounted to 143%.

As for `CCSc1nc2cc(C(F)(F)F)ccc2cc1NC(=O)CC1CC2CCC1C2` (stereo not shown) [Example 16, 2-(5-bicyclo[2.2.1]heptanyl)-N-[2-ethylsulfanyl-7-(trifluoromethyl)-quinolin-3-yl]-acetamide], on KCNQ2/3 channels, the EC50 stood at 647 nM and the Emax is 66%.

As to `CCSc1nc2cc(C(F)(F)F)ccc2c(C)c1NC(=O)CCC1CCCC1` [Example 17, 3-cyclopentyl-N-[2-ethylsulfanyl-4-methyl-7-(trifluoromethyl)-quinolin-3-yl]-propionamide], the “Formalin Test mouse IV effect @ dose [mg/kg]” value in assay [1] (0.68 mg/kg) is recorded as 90% @ 0.68. For the same molecule, on KCNQ2/3 channels, the EC50 stood at 66 nM and the Emax is 107%.

Turning to `CCSc1nc2cc(C(F)(F)F)ccc2c(C)c1NC(=O)Cc1cccs1` [Example 18, N-[2-ethylsulfanyl-4-methyl-7-(trifluoromethyl)-quinolin-3-yl]-2-thiophen-2-yl-acetamide], in assay [1] (1 mg/kg), the “Formalin Test mouse IV effect @ dose [mg/kg]” value came out at 43% @ 1. Also, on KCNQ2/3 channels, the midpoint of the response, the EC50, lay at 94 nM and the Emax was 140%.

(Values after US8207342B2, “Substituted 3-amino-2-mercaptoquinolines as KCNQ2/3 modulators” (Gruenenthal GmbH, priority 2009, dated 2012).)
